Where a SMILES comes first, the peptide text is derived from it. [ ]: non-standard residue; d: D form. Dmt = Cc1cc(O)cc(C)c1C[C@H](N)C(=O)O
target: T1, Mu-type opioid receptor (Rattus norvegicus, UniProt P33535); assay: Inhibition of DAMGO (Tyr-[D-Ala]-Gly-[NMe-Phe]-Gly-ol) binding to rat brain mu opioid receptor
T1 sequence (P33535 whole entry): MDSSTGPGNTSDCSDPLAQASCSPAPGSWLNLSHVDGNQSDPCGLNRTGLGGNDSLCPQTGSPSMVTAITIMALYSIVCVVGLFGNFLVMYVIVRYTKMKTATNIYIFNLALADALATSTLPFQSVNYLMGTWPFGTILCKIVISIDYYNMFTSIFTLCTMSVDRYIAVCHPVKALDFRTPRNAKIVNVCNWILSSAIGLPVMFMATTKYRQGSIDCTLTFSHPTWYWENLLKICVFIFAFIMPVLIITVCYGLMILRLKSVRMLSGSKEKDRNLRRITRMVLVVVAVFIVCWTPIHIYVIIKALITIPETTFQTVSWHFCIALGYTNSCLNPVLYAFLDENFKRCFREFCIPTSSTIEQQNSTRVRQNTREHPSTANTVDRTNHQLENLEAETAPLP

Q: With Cc1cc(O)cc(C)c1C[C@H](N)C(=O)N1CCC[C@H]1C(=O)N[C@@H](Cc1ccccc1)C(=O)N[C@H](C(N)=O)[C@@H](C)c1ccccc1 as the compound, how does the Ki read?
A: 0.35 nM

Q: How did the Ki turn out when Cc1cc(O)cc(C)c1C[C@H](N)C(=O)N1CCC[C@H]1C(=O)N[C@@H](Cc1ccccc1)C(=O)N[C@@H](Cc1ccccc1)C(N)=O was run?
A: 0.21 nM

Q: NC(=O)[C@H](Cc1c[nH]c2ccccc12)NC(=O)[C@H](Cc1ccccc1)NC(=O)[C@@H]1CCCN1C(=O)[C@@H](N)Cc1ccc(O)cc1 (H-YPFW-NH2) was tested. Which Ki did it give?
A: 4.21 nM

Q: For Cc1cc(O)cc(C)c1C[C@H](N)C(=O)N1CCC[C@H]1C(=O)N[C@@H](Cc1ccccc1)C(=O)N[C@@H](Cc1c[nH]c2ccccc12)C(N)=O (H-[Dmt]PFW-NH2), which Ki is on record?
A: 0.014 nM

Q: How did the Ki turn out when C[C@@H](NC(=O)[C@@H](N)Cc1ccc(O)cc1)C(=O)N[C@@H](Cc1ccccc1)C(=O)NC(Cc1ccccc1)C(N)=O (single isomer, unassigned) was run?
A: 0.31 nM

Q: How did the Ki turn out when NC(=O)C(Cc1ccccc1)NC(=O)[C@H](Cc1ccccc1)NC(=O)[C@H]1Cc2ccccc2CN1C(=O)[C@@H](N)Cc1ccc(O)cc1 (single isomer, unassigned) was run?
A: 167 nM

Q: Which Ki does the source give for NC(=O)[C@@H]1CCCN1C(=O)[C@H](Cc1ccccc1)NC(=O)[C@@H]1CCCN1C(=O)[C@@H](N)Cc1ccc(O)cc1 [MORPHICEPTIN] (H-YPFP-NH2) here?
A: 80 nM

target: T1, Mu-type opioid receptor; assay: Inhibition of DAMGO (Tyr-[D-Ala]-Gly-[NMe-Phe]-Gly-ol) binding torat brain mu opioid receptor

Q: How did the Ki turn out when C[C@H](c1ccccc1)[C@@H](NC(=O)[C@H](Cc1ccccc1)NC(=O)[C@@H]1CCCN1C(=O)[C@@H](N)Cc1ccc(O)cc1)C(N)=O was run?
A: 45.3 nM

target: Mu-type opioid receptor (Mus musculus, UniProt P42866); assay: Inhibition of DAMGO (Tyr-[D-Ala]-Gly-[NMe-Phe]-Gly-ol) binding to mouse brain mu opioid receptor
Sequence (P42866 whole entry): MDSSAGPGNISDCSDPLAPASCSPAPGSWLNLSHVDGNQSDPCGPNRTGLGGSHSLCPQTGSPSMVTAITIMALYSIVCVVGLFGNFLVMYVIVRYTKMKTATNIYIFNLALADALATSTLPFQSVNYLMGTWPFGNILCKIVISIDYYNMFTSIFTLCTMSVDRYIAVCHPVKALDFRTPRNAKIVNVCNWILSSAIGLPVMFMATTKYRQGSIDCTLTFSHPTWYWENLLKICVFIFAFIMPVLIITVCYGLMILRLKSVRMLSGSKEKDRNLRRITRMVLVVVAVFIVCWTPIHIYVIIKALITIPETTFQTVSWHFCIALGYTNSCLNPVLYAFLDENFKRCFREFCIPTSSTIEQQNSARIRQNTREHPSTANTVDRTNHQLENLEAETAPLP

Q: How did the Ki turn out when NC(=O)[C@H](Cc1ccccc1)NC(=O)[C@@H]1Cc2ccccc2[C@@H]1NC(=O)[C@@H]1CCCN1C(=O)[C@@H](N)Cc1ccc(O)cc1 was run?
A: 298 nM

Q: NC(=O)[C@H](Cc1ccccc1)NC(=O)[C@H]1Cc2ccccc2[C@H]1NC(=O)[C@@H]1CCCN1C(=O)[C@@H](N)Cc1ccc(O)cc1 was tested. Which Ki did it give?
A: 128 nM

Q: For NC(=O)[C@H](Cc1ccccc1)NC(=O)[C@H](Cc1ccccc1)NC(=O)[C@@H]1Cc2ccccc2[C@@H]1NC(=O)[C@@H](N)Cc1ccc(O)cc1, which Ki is on record?
A: 1000 nM

Q: NC(=O)[C@H](Cc1ccccc1)NC(=O)[C@H](Cc1ccccc1)NC(=O)[C@H]1Cc2ccccc2[C@H]1NC(=O)[C@@H](N)Cc1ccc(O)cc1 was tested. Which Ki did it give?
A: 241 nM

species on record: Rattus norvegicus; assay: Antinidatory effect was determined in rat; assay type: functional; parameters: unit not given here

Q: For COc1cccc(C#C[C@H](O)/C=C/[C@@H]2[C@@H](CCCCCCC(=O)O)[C@@H](O)C[C@H]2O)c1, which “Log ED50” value is on record?
A: 2

Q: With CCC(C)(C)CC[C@H](O)/C=C/[C@@H]1[C@@H](C/C=C\CCCC(=O)O)[C@@H](O)C[C@H]1O as the compound, how does the “Log ED50” value read?
A: 0.664

Q: Which “Log ED50” value does the source give for O=C(O)CCC/C=C\C[C@@H]1[C@@H](/C=C/[C@@H](O)C#Cc2ccccc2)[C@H](O)C[C@@H]1O here?
A: 1.699

Q: For O=C(O)CCC/C=C\C[C@@H]1[C@@H](/C=C/[C@@H](O)/C=C/c2ccccc2)[C@H](O)C[C@@H]1O, which “Log ED50” value is on record?
A: -0.602

Q: Which “Log ED50” value does the source give for CCCCOCC[C@H](O)/C=C/[C@@H]1[C@@H](C/C=C\CCCC(=O)O)[C@@H](O)C[C@H]1O here?
A: -0.301

Q: Which “Log ED50” value does the source give for O=C(O)C/C=C/C=C\C[C@@H]1[C@@H](/C=C/[C@@H](O)COc2ccccc2)[C@H](O)C[C@@H]1O here?
A: 0

Q: How did the “Log ED50” value turn out when O=C(O)CCC/C=C\C[C@@H]1[C@@H](/C=C/[C@@H](O)C#Cc2cccs2)[C@H](O)C[C@@H]1O was run?
A: 0.602

Q: How did the “Log ED50” value turn out when CCCCCCOC[C@H](O)/C=C/[C@@H]1[C@@H](C/C=C\CCCC(=O)O)[C@@H](O)C[C@H]1O was run?
A: 0.699

Q: CCCOC[C@H](O)/C=C/[C@@H]1[C@@H](C/C=C\CCCC(=O)O)[C@@H](O)C[C@H]1O was tested. Which “Log ED50” value did it give?
A: 0.398

Q: O=C(O)/C=C/C=C/CC[C@@H]1[C@@H](/C=C/[C@@H](O)COc2cccc(Cl)c2)[C@H](O)C[C@@H]1O was tested. Which “Log ED50” value did it give?
A: 0.777

Q: For O=C(O)CCC/C=C\C[C@@H]1[C@@H](/C=C/[C@@H](O)C#Cc2ccco2)[C@H](O)C[C@@H]1O, which “Log ED50” value is on record?
A: 0

Q: For O=C(O)/C=C/C=C/C=C/[C@@H]1[C@@H](/C=C/[C@@H](O)COc2cccc(Cl)c2)[C@H](O)C[C@@H]1O, which “Log ED50” value is on record?
A: 0.699

Q: For O=C(O)C/C=C/C=C\C[C@@H]1[C@@H](/C=C/[C@@H](O)COc2cccc(Cl)c2)[C@H](O)C[C@@H]1O, which “Log ED50” value is on record?
A: 2.886

Q: How did the “Log ED50” value turn out when O=C(O)CCC/C=C\C[C@@H]1[C@@H](/C=C/[C@@H](O)c2ccc(C(F)(F)F)cc2)[C@H](O)C[C@@H]1O was run?
A: 1.699

Q: CCCCCOC[C@H](O)/C=C/[C@@H]1[C@@H](C/C=C\CCCC(=O)O)[C@@H](O)C[C@H]1O was tested. Which “Log ED50” value did it give?
A: 1

Q: With O=C(O)/C=C/C/C=C/C[C@@H]1[C@@H](/C=C/[C@@H](O)COc2cccc(Cl)c2)[C@H](O)C[C@@H]1O as the compound, how does the “Log ED50” value read?
A: 2

Q: CCCC(C)(C)C[C@H](O)/C=C/[C@@H]1[C@@H](C/C=C\CCCC(=O)O)[C@@H](O)C[C@H]1O was tested. Which “Log ED50” value did it give?
A: 0.279

Q: With O=C(O)CC/C=C\CC[C@@H]1[C@@H](/C=C/[C@@H](O)CCc2ccccc2)[C@H](O)C[C@@H]1O as the compound, how does the “Log ED50” value read?
A: 2.301

Q: For CCCCCCC[C@H](O)/C=C/[C@@H]1[C@@H](C/C=C\CCCC(=O)O)[C@@H](O)C[C@H]1O, which “Log ED50” value is on record?
A: 0.669

Q: With O=C(O)CCC/C=C\C[C@@H]1[C@@H](/C=C/[C@@H](O)C#CC2CCCCC2)[C@H](O)C[C@@H]1O as the compound, how does the “Log ED50” value read?
A: 1.959

Q: For COCCCCC[C@H](O)/C=C/[C@@H]1[C@@H](C/C=C\CCCC(=O)O)[C@@H](O)C[C@H]1O, which “Log ED50” value is on record?
A: 0.398

Q: Which “Log ED50” value does the source give for O=C(O)/C=C/CCCC[C@@H]1[C@@H](/C=C/[C@@H](O)COc2cccc(C(F)(F)F)c2)[C@H](O)C[C@@H]1O here?
A: 0.602

Q: Which “Log ED50” value does the source give for O=C(O)/C=C\CCCC[C@@H]1[C@@H](/C=C/[C@@H](O)COc2cccc(C(F)(F)F)c2)[C@H](O)C[C@@H]1O here?
A: 0.482

Q: How did the “Log ED50” value turn out when O=C(O)/C=C/C=C/C=C/[C@@H]1[C@@H](/C=C/[C@@H](O)COc2ccccc2)[C@H](O)C[C@@H]1O was run?
A: 0.699

Q: With CCOCCCC[C@H](O)/C=C/[C@@H]1[C@@H](C/C=C\CCCC(=O)O)[C@@H](O)C[C@H]1O as the compound, how does the “Log ED50” value read?
A: 0.699

Q: With CCCCOC[C@H](O)/C=C/[C@@H]1[C@@H](C/C=C\CCCC(=O)O)[C@@H](O)C[C@H]1O as the compound, how does the “Log ED50” value read?
A: 1

Q: Which “Log ED50” value does the source give for O=C(O)/C=C/C/C=C\C[C@@H]1[C@@H](/C=C/[C@@H](O)COc2ccccc2)[C@H](O)C[C@@H]1O here?
A: 2.481

Q: For O=C(O)/C=C/C/C=C\C[C@@H]1[C@@H](/C=C/[C@@H](O)COc2ccc(Cl)cc2)[C@H](O)C[C@@H]1O, which “Log ED50” value is on record?
A: 2

Q: O=C(O)/C=C/C/C=C\C[C@@H]1[C@@H](/C=C/[C@@H](O)COc2cccc(Cl)c2)[C@H](O)C[C@@H]1O was tested. Which “Log ED50” value did it give?
A: 2.301

Q: How did the “Log ED50” value turn out when O=C(O)CCC/C=C/C[C@@H]1[C@@H](/C=C/[C@@H](O)C2CC2c2ccccc2)[C@H](O)C[C@@H]1O (stereo not given in full) was run?
A: 1.398

Q: With O=C(O)C/C=C/C=C/C[C@@H]1[C@@H](/C=C/[C@@H](O)COc2ccccc2)[C@H](O)C[C@@H]1O as the compound, how does the “Log ED50” value read?
A: 1.699

Q: With O=C(O)/C=C/C/C=C\C[C@@H]1[C@@H](/C=C/[C@@H](O)COc2cccc(C(F)(F)F)c2)[C@H](O)C[C@@H]1O as the compound, how does the “Log ED50” value read?
A: 2

Q: How did the “Log ED50” value turn out when CCCCC(C)(C)[C@H](O)/C=C/[C@@H]1[C@@H](C/C=C\CCCC(=O)O)[C@@H](O)C[C@H]1O was run?
A: 0.081

Q: For CCCOCCC[C@H](O)/C=C/[C@@H]1[C@@H](C/C=C\CCCC(=O)O)[C@@H](O)C[C@H]1O, which “Log ED50” value is on record?
A: -0.602

Q: Which “Log ED50” value does the source give for O=C(O)CCC/C=C\C[C@@H]1[C@@H](/C=C/[C@@H](O)COc2ccc(F)cc2)[C@H](O)C[C@@H]1O here?
A: 2.301

target: T1, Mu-type opioid receptor; assay: Inhibition of DAMGO (Tyr-[D-Ala]-Gly-[NMe-Phe]-Gly-ol) binding to rat brain opioid receptor

Q: With C[C@H](c1ccccc1)[C@H](NC(=O)[C@H](Cc1ccccc1)NC(=O)[C@@H]1CCCN1C(=O)[C@@H](N)Cc1ccc(O)cc1)C(N)=O as the compound, how does the Ki read?
A: 26.3 nM

Q: With C[C@@H](c1ccccc1)[C@@H](NC(=O)[C@H](Cc1ccccc1)NC(=O)[C@@H]1CCCN1C(=O)[C@@H](N)Cc1ccc(O)cc1)C(N)=O as the compound, how does the Ki read?
A: 107 nM

Q: Which Ki does the source give for C[C@@H](c1ccccc1)[C@H](NC(=O)[C@H](Cc1ccccc1)NC(=O)[C@@H]1CCCN1C(=O)[C@@H](N)Cc1ccc(O)cc1)C(N)=O here?
A: 0.8 nM

Reference: ChEMBL document CHEMBL1143632, “Ligand-based prediction of active conformation by 3D-QSAR flexibility descriptors and their application in 3+3D-QSAR models” (J Med Chem, 2005)
